Experimental data: the NIST ThermoML archive (doi:10.1021/je9005882)

Assay: excess molar enthalpy (molar enthalpy of mixing); xn = mol fraction of the nth substance listed
Settings: 303.15 K, 101 kPa, Liquid

BrCBr [dibromomethane] + CO
Settings	excess molar enthalpy [kJ/mol]
x1 = 0.1506	0.181
x1 = 0.2779	0.409
x1 = 0.3148	0.472
x1 = 0.4026	0.577
x1 = 0.504	0.639
x1 = 0.6195	0.709
x1 = 0.7224	0.782
x1 = 0.921	0.645
x1 = 0.9515	0.466
x1 = 0.9781	0.244

BrCBr [dibromomethane] + C[S+](C)[O-]
Settings	excess molar enthalpy [kJ/mol]
x1 = 0.062	-0.212
x1 = 0.1162	-0.358
x1 = 0.2682	-0.733
x1 = 0.3407	-0.84
x1 = 0.4342	-0.949
x1 = 0.503	-1
x1 = 0.5251	-1.01
x1 = 0.6466	-0.952
x1 = 0.7285	-0.846
x1 = 0.8234	-0.638
x1 = 0.8934	-0.433

BrCBr [dibromomethane] + O=C1CCCN1
Settings	excess molar enthalpy [kJ/mol]
x1 = 0.0955	-0.384
x1 = 0.151	-0.56
x1 = 0.2158	-0.742
x1 = 0.2999	-0.905
x1 = 0.4044	-1.03
x1 = 0.5247	-1.01
x1 = 0.613	-0.922
x1 = 0.7203	-0.726
x1 = 0.7913	-0.533
x1 = 0.8401	-0.405
x1 = 0.9084	-0.212

BrCBr [dibromomethane] + c1ccccc1
Settings	excess molar enthalpy [kJ/mol]
x1 = 0.0931	0.04
x1 = 0.253	0.082
x1 = 0.3416	0.101
x1 = 0.4618	0.119
x1 = 0.5464	0.133
x1 = 0.6705	0.13
x1 = 0.7405	0.127
x1 = 0.8394	0.099
x1 = 0.9506	0.041
